# Test system: not listed separately
# Assay: Log P determination by HPLC on reversed-phase column (EEC Directive 79/831, Annex V.A8)
# Assay type: physicochemical
# Conditions: reversed-phase HPLC column (C18), pH 2.3; read-out: log P (pH 2.3)
# Method: The determination of the Log P values occurred according to EEC Directive 79/831, Annex V.A8 using HPLC (High Performance Liquid Chromatography) on a reversed-phase column (C 18). Temperature: 43° C. Eluents for determination in the acidic range (pH 2.3): 0.1% aqueous phosphoric acid, acetonitrile; linear gradient of 10% acetonitrile to 90% acetonitrile. Calibration took place using unbranched alkane-2-ones (with 3 to 16 carbon atoms) with known Log P values (the Log P values were determined on the basis of the retention times by way of linear interpolation between two consecutive alkanones).
row,chromatographic logP,Compound
1,3.67,"Cc1nc(C(F)(F)F)c(C(=O)Nc2ccc(F)cc2-c2ccc(Cl)c(F)c2)s1 [Compound 2.18, N-(4′-chloro-3′,5-difluorobiphenyl-2-yl)-2-methyl-4-(trifluoromethyl)-1,3-thiazole-5-carboxamide]"
2,3.18,"Nc1ccc(F)cc1-c1ccc(Cl)c(F)c1 [III-1, 4′-chloro-3′,5-difluorobiphenyl-2-amine]"

# Same assay, conditions: reversed-phase HPLC column (C18); HPLC, C18 reversed phase, 43° C., acidic range (pH 2.3); read-out: Log P
row,chromatographic logP,Compound
1,3.93,"Cc1nc(C(F)(F)F)c(C(=O)Nc2ccc(F)cc2-c2ccc(Cl)c(Cl)c2)s1 [Compound 2.11, N-(3′,4′-dichloro-5-fluorobiphenyl-2-yl)-2-methyl-4-(trifluoromethyl)-1,3-thiazole-5-carboxamide]"
2,3.63,Cc1nc(C(F)F)c(C(=O)Nc2ccc(F)cc2-c2ccc(Cl)c(Cl)c2)s1 [Compound 2.12]
3,3.43,Cc1nc(C(F)F)c(C(=O)Nc2c(F)cccc2-c2ccc(Cl)c(Cl)c2)s1 [Compound 2.13]
4,3.68,Cc1nc(C(F)(F)F)c(C(=O)Nc2c(F)cccc2-c2ccc(Cl)c(Cl)c2)s1 [Compound 2.14]
5,3.16,Cc1nc(C(F)F)c(C(=O)Nc2c(F)cccc2-c2ccc(Cl)c(F)c2)s1 [Compound 2.16]
6,3.36,Cc1nc(C(F)F)c(C(=O)Nc2ccc(F)cc2-c2ccc(Cl)c(F)c2)s1 [Compound 2.17]
7,3.99,Cc1nc(C(F)(F)F)c(C(=O)Nc2ccc(F)cc2-c2ccc(Cl)c(C)c2)s1 [Compound 2.20]
8,3.68,Cc1nc(C(F)F)c(C(=O)Nc2ccc(F)cc2-c2ccc(Cl)c(C)c2)s1 [Compound 2.21]

# Test system: Podosphaera leucotricha
# Assay: Podosphaera Test (Apple)/Protective
# Assay type: in vivo
# Conditions: 240 h, protective, evaluated 10 days after inoculation, read-out: Efficacy in %
# Method: (§1) [table] To produce a suitable preparation of active compound, 1 part by weight of active compound is mixed with the stated amounts of solvent and emulsifier, and the concentrate is diluted with water to the desired concentration. In order to test the protective activity, young plants are sprayed with the active compound preparation at the stated application rate. After the spray coating dries, the plants are inoculated with an aqueous spore suspension of Podosphaera leucotricha. The plants are then placed in the greenhouse at approx. 23° C. and at a relative humidity of approx. 70%. The results are evaluated 10 days after the inoculation. An efficacy of 0% corresponds to that of the control, while an efficacy of 100% means that no infestation is observed.
row,Compound,pest or weed control at 100 g/ha [%]
1,Cc1nc(C(F)F)c(C(=O)Nc2ccc(F)cc2-c2ccc(Cl)c(Cl)c2)s1 [drawing 47],100
2,Cc1nc(C(F)F)c(C(=O)Nc2c(F)cccc2-c2ccc(Cl)c(Cl)c2)s1 [drawing 48],100
3,Cc1nc(C(F)(F)F)c(C(=O)Nc2ccc(F)cc2-c2ccc(Cl)c(Cl)c2)s1 [drawing 49],100
4,Cc1nc(C(F)(F)F)c(C(=O)Nc2c(F)cccc2-c2ccc(Cl)c(Cl)c2)s1 [drawing 50],100
5,Cc1nc(C(F)F)c(C(=O)Nc2c(F)cccc2-c2ccc(Cl)c(F)c2)s1 [drawing 51],100
6,Cc1nc(C(F)(F)F)c(C(=O)Nc2ccc(F)cc2-c2ccc(Cl)c(F)c2)s1 [drawing 52],100
7,Cc1nc(C(F)(F)F)c(C(=O)Nc2ccc(F)cc2-c2ccc(Cl)c(C)c2)s1 [drawing 53],100
8,Cc1nc(C(F)F)c(C(=O)Nc2ccc(F)cc2-c2ccc(Cl)c(C)c2)s1 [drawing 54],100
9,Cc1nc(C(F)F)c(C(=O)Nc2ccc(F)cc2-c2cccc(C)c2F)s1 [drawing 55],94

# Test system: apple scab fungus Venturia inaequalis
# Assay: Venturia Test (Apple)/Protective
# Assay type: in vivo
# Conditions: 240 h, protective, evaluated 10 days after inoculation, read-out: Efficacy in %
# Method: as §1, with “conidial” for “spore”, “the apple scab fungus Venturia inaequalis and then remain in an incubation cabinet for 1 day at approx. 20° C. and 100% relative humidity.” for “Podosphaera leucotricha.”, “21°” for “23°”, “90%.” for “70%.”
row,Compound,pest or weed control at 100 g/ha [%]
1,Cc1nc(C(F)F)c(C(=O)Nc2ccc(F)cc2-c2ccc(Cl)c(Cl)c2)s1 [drawing 56],100
2,Cc1nc(C(F)F)c(C(=O)Nc2c(F)cccc2-c2ccc(Cl)c(Cl)c2)s1 [drawing 57],100
3,Cc1nc(C(F)(F)F)c(C(=O)Nc2ccc(F)cc2-c2ccc(Cl)c(Cl)c2)s1 [drawing 58],100
4,Cc1nc(C(F)(F)F)c(C(=O)Nc2c(F)cccc2-c2ccc(Cl)c(Cl)c2)s1 [drawing 59],100
5,Cc1nc(C(F)F)c(C(=O)Nc2c(F)cccc2-c2ccc(Cl)c(F)c2)s1 [drawing 60],100
6,Cc1nc(C(F)(F)F)c(C(=O)Nc2ccc(F)cc2-c2ccc(Cl)c(F)c2)s1 [drawing 61],100
7,Cc1nc(C(F)(F)F)c(C(=O)Nc2ccc(F)cc2-c2ccc(Cl)c(C)c2)s1 [drawing 62],100
8,Cc1nc(C(F)F)c(C(=O)Nc2ccc(F)cc2-c2ccc(Cl)c(C)c2)s1 [drawing 63],100
9,Cc1nc(C(F)F)c(C(=O)Nc2ccc(F)cc2-c2cccc(C)c2F)s1 [drawing 64],98

# Test system: Botrytis cinerea
# Assay: Botrytis Test (Bean)/Protective
# Assay type: in vivo
# Conditions: 48 h, protective, evaluated 2 days after inoculation, read-out: Efficacy in %
# Method: [table] To produce a suitable preparation of active compound, 1 part by weight of active compound is mixed with the stated amounts of solvent and emulsifier, and the concentrate is diluted with water to the desired concentration. In order to test the protective activity, young plants are sprayed with the active compound preparation at the stated application rate. After the spray coating dries, 2 small pieces of agar that are infested with Botrytis cinerea are placed on each leaf. The inoculated plants are placed in a darkened chamber at 20° C. and 100% relative humidity. The size of the infestation blotches on the leaves is evaluated 2 days after the inoculation. An efficacy of 0% corresponds to that of the control, while an efficacy of 100% means that no infestation is observed.
row,Compound,pest or weed control at 500 g/ha [%]
1,Cc1nc(C(F)F)c(C(=O)Nc2ccc(F)cc2-c2ccc(Cl)c(Cl)c2)s1 [drawing 65],100
2,Cc1nc(C(F)F)c(C(=O)Nc2c(F)cccc2-c2ccc(Cl)c(Cl)c2)s1 [drawing 66],100
3,Cc1nc(C(F)(F)F)c(C(=O)Nc2ccc(F)cc2-c2ccc(Cl)c(Cl)c2)s1 [drawing 67],99
4,Cc1nc(C(F)(F)F)c(C(=O)Nc2c(F)cccc2-c2ccc(Cl)c(Cl)c2)s1 [drawing 68],98
5,Cc1nc(C(F)F)c(C(=O)Nc2c(F)cccc2-c2ccc(Cl)c(F)c2)s1 [drawing 69],100
6,Cc1nc(C(F)(F)F)c(C(=O)Nc2ccc(F)cc2-c2ccc(Cl)c(F)c2)s1 [drawing 70],100
7,Cc1nc(C(F)(F)F)c(C(=O)Nc2ccc(F)cc2-c2ccc(Cl)c(C)c2)s1 [drawing 71],100
8,Cc1nc(C(F)F)c(C(=O)Nc2ccc(F)cc2-c2ccc(Cl)c(C)c2)s1 [drawing 72],100
9,Cc1nc(C(F)F)c(C(=O)Nc2ccc(F)cc2-c2cccc(C)c2F)s1 [drawing 73],98

# Test system: Pyrenophora teres
# Assay: Pyrenophora teres Test (Barley)/Protective
# Assay type: in vivo
# Conditions: protective, 500 g/ha, evaluated 7 days after inoculation
# Method: [table] To produce a suitable preparation of active compound, 1 part by weight of active compound is mixed with the stated amounts of solvent and emulsifier, and the concentrate is diluted with water to the desired concentration. In order to test the protective activity, young plants are sprayed with the active compound preparation at the stated application rate. After the spray coating dries, the plants are sprayed with a conidial suspension of Pyrenophora teres. The plants remain in an incubation cabinet for 48 hours at 20° C. and 100% relative humidity. The plants are then placed in a greenhouse at a temperature of approx. 20° C. and a relative humidity of 80%. The results are evaluated 7 days after the inoculation. An efficacy of 0% corresponds to that of the control, while an efficacy of 100% means that no infestation is observed.
row,Compound,Efficacy in % [%]
1,Cc1nc(C(F)F)c(C(=O)Nc2ccc(F)cc2-c2ccc(Cl)c(Cl)c2)s1 [drawing 74],100
2,Cc1nc(C(F)F)c(C(=O)Nc2c(F)cccc2-c2ccc(Cl)c(F)c2)s1 [drawing 75],100
3,Cc1nc(C(F)(F)F)c(C(=O)Nc2ccc(F)cc2-c2ccc(Cl)c(F)c2)s1 [drawing 76],100
4,Cc1nc(C(F)F)c(C(=O)Nc2ccc(F)cc2-c2ccc(Cl)c(F)c2)s1 [drawing 77],100
5,Cc1nc(C(F)F)c(C(=O)Nc2ccc(F)cc2-c2ccc(Cl)c(C)c2)s1 [drawing 78],100
6,Cc1nc(C(F)F)c(C(=O)Nc2ccc(F)cc2-c2cccc(C)c2F)s1 [drawing 79],100

# Test system: Alternaria solani
# Assay: Alternaria Test (Tomato)/Protective
# Assay type: in vivo
# Conditions: protective, 750 g/ha, evaluated 7 days after inoculation
# Method: [table] To produce a suitable preparation of active compound, 1 part by weight of active compound is mixed with the stated amounts of solvent and emulsifier, and the concentrate is diluted with water to the desired concentration. In order to test the protective activity, young tomato plants are sprayed with the active compound preparation at the stated application rate. One day after treatment, the plants are inoculated with a spore suspension of Alternaria solani and then remain for 24 hours at 100% relative humidity and 20° C. The plants are then placed into in environment of 96% relative humidity at a temperature of 20° C. The results are evaluated 7 days after the inoculation. An efficacy of 0% corresponds to that of the control, while an efficacy of 100% means that no infestation is observed.
row,Compound,Efficacy in % [%]
1,Cc1nc(C(F)F)c(C(=O)Nc2c(F)cccc2-c2ccc(Cl)c(F)c2)s1 [drawing 80],100
2,Cc1nc(C(F)(F)F)c(C(=O)Nc2ccc(F)cc2-c2ccc(Cl)c(F)c2)s1 [drawing 81],100
3,Cc1nc(C(F)F)c(C(=O)Nc2ccc(F)cc2-c2ccc(Cl)c(F)c2)s1 [drawing 82],98

# Source: US7977363B2, “Biphenyl-thiazolo-carboxamides” (Bayer Cropscience AG, priority 2004, dated 2011)
